Measured values: patent US20030186943A1, “Substituted gamma-phenyl-delta-lactams and uses related thereto” (Inflazyme Pharmaceuticals Ltd., priority 1998, published 2003)
Like-named read-outs stand apart in the source and are kept apart here.

Key:
[1] = target: T1, cAMP phosphodiesterase 3 from human platelets (Homo sapiens, UniProt Q14432); experiment: Inhibition of cAMP phosphodiesterase 3 from human platelets; type: biochemical; details: for inhibition at 100 µM: PDE3
T1 construct: from tissue; host or cells: human platelets, cytoplasmic extract
T1 sequence (Q14432 whole entry): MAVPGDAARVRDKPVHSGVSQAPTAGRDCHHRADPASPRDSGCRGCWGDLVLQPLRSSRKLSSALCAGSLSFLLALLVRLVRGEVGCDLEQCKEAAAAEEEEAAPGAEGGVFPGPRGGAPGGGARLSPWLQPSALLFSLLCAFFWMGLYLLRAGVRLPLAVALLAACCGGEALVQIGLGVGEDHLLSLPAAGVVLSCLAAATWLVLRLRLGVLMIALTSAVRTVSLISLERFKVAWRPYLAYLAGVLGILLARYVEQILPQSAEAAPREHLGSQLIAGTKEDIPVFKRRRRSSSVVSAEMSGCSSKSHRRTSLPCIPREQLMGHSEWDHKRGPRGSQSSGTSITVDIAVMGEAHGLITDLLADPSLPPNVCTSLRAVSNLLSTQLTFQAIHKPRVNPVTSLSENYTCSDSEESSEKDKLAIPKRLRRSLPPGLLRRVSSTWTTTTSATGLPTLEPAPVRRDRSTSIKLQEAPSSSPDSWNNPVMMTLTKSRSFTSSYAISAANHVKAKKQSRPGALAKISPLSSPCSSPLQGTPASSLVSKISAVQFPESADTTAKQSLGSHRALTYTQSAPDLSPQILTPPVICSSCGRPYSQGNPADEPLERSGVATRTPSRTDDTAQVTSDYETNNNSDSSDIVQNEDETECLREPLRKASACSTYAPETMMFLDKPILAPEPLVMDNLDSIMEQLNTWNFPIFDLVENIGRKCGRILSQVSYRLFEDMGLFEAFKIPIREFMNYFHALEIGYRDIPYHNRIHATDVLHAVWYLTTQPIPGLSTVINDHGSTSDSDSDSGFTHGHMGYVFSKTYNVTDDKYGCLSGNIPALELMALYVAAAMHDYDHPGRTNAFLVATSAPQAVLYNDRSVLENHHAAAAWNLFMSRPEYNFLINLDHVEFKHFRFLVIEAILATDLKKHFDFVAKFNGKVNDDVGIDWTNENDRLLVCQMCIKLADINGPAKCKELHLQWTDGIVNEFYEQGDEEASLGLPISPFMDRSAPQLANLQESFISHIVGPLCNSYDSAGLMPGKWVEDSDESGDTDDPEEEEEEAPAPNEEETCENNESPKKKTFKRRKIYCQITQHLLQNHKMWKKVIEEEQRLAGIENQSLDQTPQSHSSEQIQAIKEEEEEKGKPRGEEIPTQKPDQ
In short: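 Partially purified human platelet extract used as PDE3 source with cAMP as substrate, so cGMP-preferring PDE2 and PDE5 present in platelets go undetected. IBMX served as positive control.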

[2] = system: cAMP response element luciferase activity in human U937 monocytic cells; experiment: Potentiation of forskolin-induced CRE-luciferase activity in U937 cells; type: cell-based; details: U-937, U937 cells co-incubated with 10 μM forskolin, 4 hours, X marks this range
In short: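 U937 cells electroporated with PCRE-luc reporter, recovered 16-18 h, then exposed to compound or vehicle with or without 10 μM forskolin for 4 h at 37 °C. Cell lysates read for luciferase luminescence.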

[3] = system: TNF-α production in concanavalin-A stimulated primary human CD4+ T-lymphocytes; experiment: TNF-α production in Con-A stimulated human CD4+ T-cells (ELISA); type: cell-based; details: T-lymphocyte, X marks this range
Description: Activated T-lymphocytes are known to produce TNF-α and may constitute a significant source of this important inflammatory mediator in localized regions of inflammation such as the rheumatoid synovium or psoriatic lesions. Supernatants from cona-stimulated primary human CD4+ T-cells that had been incubated in the presence or absence of a test compound were analyzed for TNF-α using an ELISA system. (Pharingen; recommended anti-TNF antibody set 18631-D and 18642-D). Substantial quantities of TNF-α were induced in vehicle treated T-cells stimulated with conA. […] This may be due to the differing sensitivity of monocyte/macrophages versus T-lymphocytes to elevations in intracellular cAMP with respect to regulatory pathways impacting TNF-α production.
Approximately 60 cc of whole human blood was collected into ACD anti-coagulant vacutainer tubes. 15 mL Ficoll Paque 1077 was aliquoted into 6 sterile 50 mL conical tubes. 10 mL of blood was slowly layered on top of the Ficoll Paque by holding the tube upright and resting the pipette tip at the inside edge of the tube and allowing the blood to slowly run down the side of the tube. Tubes were spun at 1700 rpm for 30 minutes at room temperature. The plasma layer above the leukocyte band was aspirated off and a pasteur pipette was used to lift off the leukocyte band and transfer it to a sterile 50 mL conical tube. Cells from each leukocyte gradiant tube were transferred to a separate 50 mL conical tube. Sterile PBS pH 7.4 was added to each 50 mL conical tube containing cells from leukocyte band to a volume of 50 mL. Tubes were spun at 1100 rpm for 10 minutes. Supernatant was aspirated off and the cells were resuspended in 50 mL PBS pH 7.4. Tubes were re-centrifuged at 1100 rpm for 10 minutes. Supernatant was aspirated off and the cells were resuspended in appropriate medium at a density of 5×10^7 cells/mL or 2×10^6 cells/mL.
CD 4+T-cell Preparation: Cells from Leukocyte preparation were resuspended in sterile PBS pH 7.4 supplemented with 2-6% Fetal Bovine Serum (FBS) at a density of 5×10^7 cells/mL. Cells were then ready for isolation.
100 μL of antibody cocktail (Stem Cell Technologies, Catalogue No. 14062) was added for each mL of cells and mixed well. Cells+Ab cocktail was incubated on ice for 30 minutes. After 30 minute incubation, 60 μL of magnetic colloid was added for each mL of cells, and mixed well. Cells+Ab cocktail+magnetic colloid were incubated on ice for 30 minutes. After a final 30 minute incubation cells were ready for magnetic cell separation.
Sample was loaded into the top of a column. The stopcock was turned to allow the flow of media down through the column, and the media was collected into a collection tube. PBS supplemented with 2-6% FBS was added to the column until three column volumes had been collected (not including the volume of the start sample). Cells were washed, counted, and resuspended in RPMI 1640 with 10% FBS+2 mM L-glutamine at a density of 1×10^6 cells/mL.
CD4+ T-cells were isolated as described above. Cells were suspended in RPMI 1640 media (Stem Cell Technologies Inc.; Catalogue No. 36750) with 10% FBS+2 mM L-glutamine at a density of 1×10^6 cells/mL. Cells were maintained on ice as test compounds were prepared. Test compounds were prepared in a sterile 96-well assay plate at 50×the final desired test concentration, all wells contained an equal amount of dimethylsulfoxide vehicle. 500 μL of CD4^+ T-cells were added to each well of 24-well assay plate. 10 μL of each test compound working solution was added to the appropriate wells; two wells were left as stimulated and non-stimulated controls. 10 μL of concanavalin A (50×the final concentration) at 10 μg/mL was added to each well with the exception of the non-stimulated control wells. Cells were incubated at 37° C. for 48 hours. Conditioned media is then assessed by ELISA for the quantity of IL-2, […], TNFα and IL-10 present.

[4] = read-out: EC50 range (μM) 0.1-1
[5] = read-out: TNF-alpha IC50 RANGE (μM) 2.0-20
[6] = PDE3, platelet cell extract, X marks this range, read-out: IC50 range (μM) 10-100
[7] = read-out: TNF-alpha IC50 RANGE (μM) <2
[8] = PDE3, platelet cell extract, X marks this range, read-out: IC50 range (μM) 1-10

| SMILES | IC50 [3, 5] [µM] | EC50 ([2]; read-out: EC50 range (μM) 1-25) [µM] | IC50 [3, 7] [µM] | IC50 [1, 8] [µM] | also measured |
| --- | --- | --- | --- | --- | --- |
| COc1ccc([C@@H]2CCC(=O)OC2)cc1OC1CCCC1 [Compound 41] |  |  |  |  | IC50 ([1]; PDE3, platelet cell extract, X marks this range): > 100 µM; inhibition at 100 µM ([1]; read-out: % inhibition by 100 μM test compound 25-50, X marks this range): 25 to 50%; EC50 [2, 4]: 0.1 to 1 µM |
| COc1cc(C[C@@H]2C[C@@H](c3ccc(OC)c(OC)c3)COC2=O)ccc1O [Compound 30] | 2 to 20 | 1 to 25 |  |  | IC50 [1, 6]: 10 to 100 µM |
| COc1ccc([C@H]2CNC(=O)C(Cc3ccc(OCc4ccccc4)c(OC)c3)C2)cc1OC (stereo partly drawn) [Compound 54] |  | 1 to 25 | < 2 | 1 to 10 |  |
| COc1cc(CC2C[C@@H](c3ccc(OC)c(OC)c3)CNC2=O)ccc1O (stereo partly drawn) [Compound 55] | 2 to 20 | 1 to 25 |  | 1 to 10 |  |
| COc1ccc(C2CNC(=O)C2)cc1OC1CCCC1 (stereo not drawn) [Rolipram, reference compound] |  |  | < 2 |  | effect in PDE3 assay ([1]; platelet cell extract, cAMP as substrate): without effect |
| COc1cc(CC2C[C@@H](c3ccc(OC)c(OC4CCCC4)c3)COC2=O)ccc1O (stereo partly drawn) [Compound 43] | 2 to 20 |  |  |  | IC50 [1, 6]: 10 to 100 µM; inhibition at 100 µM ([1]; read-out: % inhibition by 100 μM test compound 75-100, X marks this range): 75 to 100%; EC50 [2, 4]: 0.1 to 1 µM |
| COc1cc(CC2C[C@@H](c3ccc(OC)c(OC4CCCC4)c3)CNC2=O)ccc1O (stereo partly drawn) [Compound 62] |  | 1 to 25 | < 2 | 1 to 10 |  |
| COc1cc(C[C@@H]2CC(c3ccc(OC)c(OC)c3)COC2=O)ccc1O (mixture of isomers) [Compound 12] |  | 1 to 25 |  |  | IC50 ([1]; human platelets, read-out: IC50 PDE 3): 45 µM; inhibition at 100 µM ([1]; read-out: % inhibition by 100 μM test compound 50-75, X marks this range): 50 to 75% |
